Experimental data as given in US20240124408A1 (Sanofi, priority 2020, published 2024).

Experiments:
human TRPM8 = molecular target: T1, human TRPM8 (Homo sapiens, UniProt Q7Z2W7); assay: In vitro human TRPM8 fluorescence calcium flux assay (recombinant CHO cells, Fluo4-AM, FDSS6000); type: cell-based; settings: recombinant CHO cells expressing human TRPM8; menthol-related EC50, normalized to 100 μM menthol
T1 construct: expressed in transfected cells; host or cells: CHO (p658 mammalian expression vector)
T1 sequence (Q7Z2W7 whole entry): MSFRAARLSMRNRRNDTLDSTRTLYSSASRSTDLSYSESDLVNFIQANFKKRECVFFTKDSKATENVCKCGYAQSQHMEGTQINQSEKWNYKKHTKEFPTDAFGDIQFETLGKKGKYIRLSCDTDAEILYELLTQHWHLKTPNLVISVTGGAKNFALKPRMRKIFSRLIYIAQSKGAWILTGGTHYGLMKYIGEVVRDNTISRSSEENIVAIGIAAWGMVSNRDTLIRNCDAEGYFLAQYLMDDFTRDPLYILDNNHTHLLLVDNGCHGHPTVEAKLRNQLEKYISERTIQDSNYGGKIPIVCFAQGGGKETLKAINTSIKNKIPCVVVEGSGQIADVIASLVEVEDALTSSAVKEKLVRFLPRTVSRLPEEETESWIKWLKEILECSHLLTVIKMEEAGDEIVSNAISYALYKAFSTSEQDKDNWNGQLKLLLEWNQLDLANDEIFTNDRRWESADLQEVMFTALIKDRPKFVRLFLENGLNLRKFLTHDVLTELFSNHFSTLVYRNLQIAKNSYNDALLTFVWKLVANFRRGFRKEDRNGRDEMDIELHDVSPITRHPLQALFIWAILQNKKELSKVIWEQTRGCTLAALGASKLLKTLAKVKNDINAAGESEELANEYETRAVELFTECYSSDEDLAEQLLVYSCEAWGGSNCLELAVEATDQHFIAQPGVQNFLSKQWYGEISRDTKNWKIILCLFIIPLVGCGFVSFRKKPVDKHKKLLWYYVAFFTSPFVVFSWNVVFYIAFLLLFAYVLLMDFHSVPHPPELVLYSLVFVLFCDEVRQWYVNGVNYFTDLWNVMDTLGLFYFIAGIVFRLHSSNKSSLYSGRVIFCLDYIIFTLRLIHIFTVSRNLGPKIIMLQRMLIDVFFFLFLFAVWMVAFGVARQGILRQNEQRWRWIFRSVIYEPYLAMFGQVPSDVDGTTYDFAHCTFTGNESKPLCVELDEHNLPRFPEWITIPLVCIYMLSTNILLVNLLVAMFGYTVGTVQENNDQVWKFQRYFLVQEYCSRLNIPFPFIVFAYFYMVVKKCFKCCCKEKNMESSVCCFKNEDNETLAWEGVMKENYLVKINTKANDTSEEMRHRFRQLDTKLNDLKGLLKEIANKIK
Procedure: (§1) In Vitro Pig and Human TRPM8 Fluorescence Calcium Flux Assays
(§2) For functional expression of TRPM8, the full-length cDNA encoding human (NM_024080) and pig (XM_001927892.1) TRPM8 sequences were subcloned into p658 and pcDNA5/FRT/TO mammalian expression vectors, respectively. Engineered recombinant CHO cell lines expressing human or pig TRPM8 were generated. Culture media was Ham-F12 with 10% FCS for both lines, and for the pig cell line only 400 μg/ml hygromycin B and 30 μg/mL blasticidin were added as selection antibiotics (all reagents were obtained from Invitrogen, Fisher Scientific). Cells were grown in culture flasks up to 80% confluence where they were harvested using accutase (Sigma, MO, USA) to detach the cells by enzymatic dissociation and either seeded directly into assay plates or cryopreserved for future use.
(§3) For calcium flux assays, cells were plated into clear base poly-D-lysine coated 384-well plates (BD Biosciences, NJ USA) at a density of 15,000 cells per well in appropriate culture medium and grown overnight. The following day, all medium was removed then the cells were incubated with 2 μM of Fluo4-AM Dye (Molecular Probes) prepared in complete HBSS assay buffer containing 20 mM HEPES, 0.1% BSA, and 2.5 mM probenecid at room temperature for one hour. Following incubation, plates were inserted into a FDSS6000 instrument (Hamamatsu, Photonics, Japan) instrument, where cells were challenged with compounds of the formula (at varying concentrations) and intracellular calcium was measured kinetically for 3 min after addition.
(§4) This protocol allowed the determination of an EC50 value, from the sixteen-point dose response data, for each compound of the formula tested. Maximal fluorescence intensity achieved upon addition of 100 μM menthol (stock solution prepared in ethanol from solid, Sigma-Aldrich) was exported from the FDSS and further analyzed using IDBS XLFit 5. Data were normalized to the average 100 μM menthol response (maximum control wells) included in each plate. The dose response curves from the average of wells for each data point were analyzed by using nonlinear regression of sigmoidal dose response (formula 205). Finally, the (menthol-related) EC50 values (Half maximal effective concentration) were calculated with the best-fit dose curve determined by IDBS XLFit 5 software.

pig TRPM8 = molecular target: T2, pig TRPM8 (Sus scrofa, UniProt F1SM15); assay: In vitro pig TRPM8 fluorescence calcium flux assay (recombinant CHO cells, Fluo4-AM, FDSS6000); type: cell-based; settings: recombinant CHO cells expressing pig TRPM8; menthol-related EC50, normalized to 100 μM menthol
T2 construct: expressed in transfected cells; host or cells: CHO (pcDNA5/FRT/TO vector; hygromycin B and blasticidin selection)
T2 sequence (F1SM15 1-1104): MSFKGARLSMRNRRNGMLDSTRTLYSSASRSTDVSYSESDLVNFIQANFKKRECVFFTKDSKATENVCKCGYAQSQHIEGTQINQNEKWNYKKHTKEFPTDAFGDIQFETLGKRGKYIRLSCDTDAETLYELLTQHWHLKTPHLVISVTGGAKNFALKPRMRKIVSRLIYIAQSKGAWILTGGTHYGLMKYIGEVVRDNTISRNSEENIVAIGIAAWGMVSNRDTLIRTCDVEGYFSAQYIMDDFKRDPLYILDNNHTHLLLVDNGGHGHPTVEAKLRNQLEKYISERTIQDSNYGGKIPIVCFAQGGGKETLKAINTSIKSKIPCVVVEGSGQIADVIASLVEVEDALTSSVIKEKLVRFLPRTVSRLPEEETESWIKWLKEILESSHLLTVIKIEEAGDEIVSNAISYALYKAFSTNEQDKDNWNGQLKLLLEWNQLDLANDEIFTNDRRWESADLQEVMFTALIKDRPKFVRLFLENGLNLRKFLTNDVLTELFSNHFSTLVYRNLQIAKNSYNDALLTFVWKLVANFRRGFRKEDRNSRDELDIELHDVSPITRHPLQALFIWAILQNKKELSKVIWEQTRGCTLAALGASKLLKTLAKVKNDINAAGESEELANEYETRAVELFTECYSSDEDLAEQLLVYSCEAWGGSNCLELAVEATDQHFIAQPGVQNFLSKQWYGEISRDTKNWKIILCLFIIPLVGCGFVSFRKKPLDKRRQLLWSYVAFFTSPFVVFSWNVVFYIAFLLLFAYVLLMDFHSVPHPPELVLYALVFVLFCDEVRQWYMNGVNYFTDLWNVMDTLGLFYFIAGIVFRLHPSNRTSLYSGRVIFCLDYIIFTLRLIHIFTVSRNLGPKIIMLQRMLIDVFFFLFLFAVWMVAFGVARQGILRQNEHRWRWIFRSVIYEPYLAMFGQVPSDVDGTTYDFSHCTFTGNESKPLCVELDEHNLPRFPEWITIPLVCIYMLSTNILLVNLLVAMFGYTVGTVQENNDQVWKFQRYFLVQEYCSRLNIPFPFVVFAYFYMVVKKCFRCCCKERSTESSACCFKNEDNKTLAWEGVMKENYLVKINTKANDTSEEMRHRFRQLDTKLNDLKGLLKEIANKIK
Procedure: as §1, §2, §3, §4

SMILES	EC50 (human TRPM8)	EC50 (pig TRPM8)
CC(C)[C@@H]1CC[C@@H](C)C[C@@]1(O)C(=O)NCCc1nc2ccccc2[nH]1 [Example 8, (1S,2S,5R)—N-(2-(1H-benzo[d]imidazol-2-yl)ethyl)-1-hydroxy-2-isopropyl-5-methylcyclohexane-1-carboxamide 2-hydroxypropane-1,2,3-tricarboxylate]	1510 nM	713 nM
CC(C)[C@@H]1CC[C@@H](C)C[C@@]1(O)C(=O)N[C@H]1COc2ccccc2C1 [Example 95, (1S,2S,5R)—N-((3R)-chroman-3-yl)-1-hydroxy-2-isopropyl-5-methylcyclohexane-1-carboxamide]	3.6 nM	3.1 nM
CC(C)[C@@H]1CC[C@@H](C)C[C@@]1(O)C(=O)NCC(=O)Oc1cc(O)cc(O)c1 [Example 76, 3,5-dihydroxyphenyl ((1S,2S,5R)-1-hydroxy-2-isopropyl-5-methylcyclohexane-1-carbonyl)glycinate]	501 nM	365 nM
COC(=O)CC(CNC(=O)[C@]1(O)C[C@H](C)CC[C@H]1C(C)C)c1ccccc1 (stereo partly drawn) [Example 65, methyl 4-((1S,2S,5R)-1-hydroxy-2-isopropyl-5-methylcyclohexane-1-carboxamido)-3-phenyl butanoate]	353 nM	729 nM
CC(C)[C@@H]1CC[C@@H](C)C[C@@]1(O)C(=O)NCC1CCOc2ccccc21 (stereo partly drawn) [Example 103, (1S,2S,5R)—N-(chroman-4-ylmethyl)-1-hydroxy-2-isopropyl-5-methylcyclohexane-1-carboxamide]	18.8 nM	14.9 nM
Cc1cccc([C@@H](O)CNC(=O)[C@]2(O)C[C@H](C)CC[C@H]2C(C)C)c1 [Example 45, (1S,2S,5R)-1-hydroxy-N-((2R)-hydroxy-2-(m-tolyl)ethyl)-2-isopropyl-5-methylcyclohexane-1-carboxamide]	48.5 nM	18.2 nM
Cc1oc(=O)oc1COC(=O)c1cccc(CCNC(=O)[C@]2(O)C[C@H](C)CC[C@H]2C(C)C)c1 [Example 29, (5-methyl-2-oxo-1,3-dioxol-4-yl)methyl 3-(2-((1S,2S,5R)-1-hydroxy-2-isopropyl-5-methylcyclohexane-1-carboxamido)ethy) benzoate]	211 nM	221 nM
CC(C)[C@@H]1CC[C@@H](C)C[C@@]1(O)C(=O)NCC(=O)c1ccc(Cl)cc1 [Example 134, (1S,2S,5R)-N-[2-(4-chlorophenyl)-2-oxo-ethyl]-1-hydroxy-2-isopropyl-5-methyl-cyclohexanecarboxamide]	3.4 nM	1.3 nM
CC(C)[C@@H]1CC[C@@H](C)C[C@@]1(O)C(=O)NCC(=O)c1cccc(O)c1O [Example 104, (1S,2S,5R)—N-(2-(2,3-dihydroxyphenyl)-2-oxoethyl)-1-hydroxy-2-isopropyl-5-methylcyclohexane-1-carboxamide]	1.1 nM	0.6 nM
CC(C)[C@@H]1CC[C@@H](C)C[C@@]1(O)C(=O)NCC(O)(c1ccccc1)C(F)(F)F (single isomer, unassigned) [Example 82]	332 nM	486 nM
COc1cccc(CCNC(=O)[C@]2(O)C[C@H](C)CC[C@H]2C(C)C)c1OC [Example 115, (1S,2S,5R)-N-[2-(2,3-dimethoxyphenyl)ethyl]-1-hydroxy-2-isopropyl-5-methyl-cyclohexanecarboxamide]	786 nM	362 nM
Cc1cccnc1CCNC(=O)[C@]1(O)C[C@H](C)CC[C@H]1C(C)C [Example 127, (1S,2S,5R)-1-hydroxy-2-isopropyl-5-methyl-N-[2-(3-methyl-2-pyridyl)ethyl]cyclohexanecarboxamide]	359 nM	152 nM
CC(=O)NCCOc1ccccc1CCNC(=O)[C@]1(O)C[C@H](C)CC[C@H]1C(C)C [Example 84, (1S,2S,5R)—N-(2-(2-acetamidoethoxy)phenethyl)-1-hydroxy-2-isopropyl-5-methylcyclohexane-1-carboxamide]	143 nM	141 nM
CC(C)[C@@H]1CC[C@@H](C)C[C@@]1(O)C(=O)NCC1OC(=O)c2ccccc21 (mixture of isomers) [Example 17, (1S,2S,5R)-1-hydroxy-2-isopropyl-5-methyl-N-(((1RS)-3-oxo-1,3-dihydroisobenzofuran-1-yl)methyl) cyclohexane-1-carboxamide]	410 nM	191 nM
CC(C)[C@@H]1CC[C@@H](C)C[C@@]1(O)C(=O)NC1CCOC1=O (stereo partly drawn) [Example 112, (1S,2S,5R)-1-hydroxy-2-isopropyl-5-methyl-N-(2-oxotetrahydrofuran-3-yl)cyclohexane-1-carboxamide]	1580 nM	892 nM

Next, values leading:

EC50 (human TRPM8)	EC50 (pig TRPM8)	SMILES
43 nM	535 nM	CC(C)[C@@H]1CC[C@@H](C)C[C@@]1(O)C(=O)NCC1(O)CCc2ccccc21 (single isomer, unassigned) [Example 175]
22.5 nM	61.4 nM	CC(C)[C@@H]1CC[C@@H](C)C[C@@]1(O)C(=O)NCC(NC(=O)[C@H](C)N)c1ccccc1 (single isomer, unassigned) [Example 181]
24.6 nM	21.7 nM	CC(C)[C@@H]1CC[C@@H](C)C[C@@]1(O)C(=O)NCCc1ccc(O)cc1O [Example 173, (1S,2S,5R)-N-[2-(2,4-dihydroxyphenyl)ethyl]-1-hydroxy-2-isopropyl-5-methyl-cyclohexanecarboxamide]
9.4 nM	3.3 nM	CC(C)[C@@H]1CC[C@@H](C)C[C@@]1(O)C(=O)NCC(=O)c1ccccc1Cl [Example 140, (1S,2S,5R)-N-[2-(2-chlorophenyl)-2-oxo-ethyl]-1-hydroxy-2-isopropyl-5-methyl-cyclohexanecarboxamide]
16.6 nM	15.2 nM	CC(C)[C@@H]1CC[C@@H](C)C[C@@]1(O)C(=O)NCCc1ccc(O)c([N+](=O)[O-])c1 [Example 166, (1S,2S,5R)-1-hydroxy-N-[2-(4-hydroxy-3-nitro-phenyl)ethyl]-2-isopropyl-5-methyl-cyclohexanecarboxamide]
330 nM	369 nM	CC(C)[C@@H]1CC[C@@H](C)C[C@@]1(O)C(=O)NCc1cccc(O)c1 [Example 165, (1S,2S,5R)-1-hydroxy-N-[(3-hydroxyphenyl)methyl]-2-isopropyl-5-methyl-cyclohexanecarboxamide]
3.2 nM	6.1 nM	CC(C)[C@@H]1CC[C@@H](C)C[C@@]1(O)C(=O)N[C@@H]1CCc2ccc(O)cc2C1 [Example 171, (1S,2S,5R)-1-hydroxy-N-[(2R)-7-hydroxytetralin-2-yl]-2-isopropyl-5-methyl-cyclohexanecarboxamide]
58.4 nM	91.8 nM	CC(C)[C@@H]1CC[C@@H](C)C[C@@]1(O)C(=O)NCCCc1ccc(O)cc1 [Example 167, (1S,2S,5R)-1-hydroxy-N-[3-(4-hydroxyphenyl)propyl]-2-isopropyl-5-methyl-cyclohexanecarboxamide]
658 nM	940 nM	CC(C)[C@@H]1CC[C@@H](C)C[C@@]1(O)C(=O)NC(CCO)c1cccc(O)c1 (stereo partly drawn) [Example 163, (1S,2S,5R)-1-hydroxy-N-[3-hydroxy-1-(3-hydroxyphenyl)propyl]-2-isopropyl-5-methyl-cyclohexanecarboxamide]
4 nM	4 nM	CC(C)[C@@H]1CC[C@@H](C)C[C@@]1(O)C(=O)NCC(=O)c1sccc1Cl [Example 148, (1S,2S,5R)-N-[2-(3-chloro-2-thienyl)-2-oxo-ethyl]-1-hydroxy-2-isopropyl-5-methyl-cyclohexanecarboxamide]
2.7 nM	1.2 nM	Cc1cccc(C(=O)CNC(=O)[C@]2(O)C[C@H](C)CC[C@H]2C(C)C)c1 [Example 141, (1S,2S,5R)-1-hydroxy-2-isopropyl-5-methyl-N-[2-(m-tolyl)-2-oxo-ethyl]cyclohexanecarboxamide]
310 nM	47 nM	COc1ccc2c(c1)CCC2CNC(=O)[C@]1(O)C[C@H](C)CC[C@H]1C(C)C (stereo partly drawn) [Example 152, (1S,2S,5R)-1-hydroxy-2-isopropyl-N-[(5-methoxyindan-1-yl)methyl]-5-methyl-cyclohexanecarboxamide]
3.8 nM	1.7 nM	CC(C)[C@@H]1CC[C@@H](C)C[C@@]1(O)C(=O)NCC(=O)c1cc(F)cc(F)c1 [Example 138, (1S,2S,5R)-N-[2-(3,5-difluorophenyl)-2-oxo-ethyl]-1-hydroxy-2-isopropyl-5-methyl-cyclohexanecarboxamide]
